Assay results as given in patent US20030229132A1, “Small molecule modulators of apoptosis” (priority 2002, published 2003).

Legend:
Jurkat cells = test: Cell viability by MTT test, Jurkat; format: cell-based, human
Description: (§1) Samples were then probed by immunoblot for (A) caspase-3 activation or (B) cleavage of PARP. (C) DNA fragmentation analysis. […] The DNA was isolated by phenol/chloroform extraction, separated on a 2% agarose gel and visualized by ethidium bromide staining. Cell viability assay.
One of the hallmarks of apoptosis is the fragmentation of chromosomal DNA into discrete, nucleosomal sized bands. […] We then examined the effects of the compounds on cell viability. Jurkat cells were incubated at different concentrations of compounds for 22 hr and then assayed by MTT test.
(§2) Normal cell lines include peripheral blood lymphocytes (PBL) isolated from donated human blood, non-transformed mammary fibroblasts (MCF-10A), human mammary epithelial cells (HMEC), human umbilical vein endothelial cells (HUVEC), and human prostate epithelial cells (PREC). Transformed cell lines include cell lines from leukemia, breast, lung, ovarian, and epidermal cancers (Table 1).

[1] = tested on: peripheral blood lymphocytes (PBL); test: Cell viability, PBL; format: cell-based, human; conditions: normal cell
Excerpt: as §1, §2

MCF 10A cells = test: Cell viability, MCF 10A; format: cell-based, human
Excerpt: as §2

[2] = tested on: human umbilical vein endothelial cells (HUVEC); test: Cell viability, HUVEC; format: cell-based; conditions: normal cell
Excerpt: as §2

[3] = tested on: human prostate epithelial cells (PREC); test: Cell viability, PREC; format: cell-based
Excerpt: as §2

Molt-4 = test: Cell viability, Molt-4; format: cell-based, human; conditions: Molt-4, leukemia
Excerpt: as §1, §2

CCRF-CEM = test: Cell viability, CCRF-CEM; format: cell-based, human; conditions: leukemia
Excerpt: as §1, §2

BT-549 = test: Cell viability, BT-549; format: cell-based, human; conditions: BT-549, breast
Excerpt: as §2

MDA-MB-453 = test: Cell viability, MDA-MB-453; format: cell-based; conditions: MDA-MB-453, breast
Excerpt: as §2

MCF-7 = test: Cell viability, MCF-7; format: cell-based
Excerpt: as §2

NCI-H23 = test: Cell viability, NCI-H23; format: cell-based, human; conditions: NCI-H23, lung
A431 = test: Cell viability, A431; format: cell-based; conditions: A431, epidermal
Excerpt: as §2

[4] = tested on: Jurkat cells transfected with Apaf-1 siRNA; test: Viability of Jurkat cells transfected with Apaf-1 siRNA (MTT test); format: cell-based, human; conditions: 20 nM Apaf-1 siRNA 48 hr, then 24 hr incubation
Description: (§3) (A) Jurkat cells were transfected with 20 nM Apaf-1 siRNA for 48 hr and half the cells were lysed and probed with antibodies to Apaf-1, caspase-9, and caspase-3. The other half of the cells was incubated with varying concentrations of (B), compound 2 or (C), Fas ligand for 24 hr and assayed for viability by MTT test. (D) SK-OV-3 cells were transiently transfected with Apaf-1 or vector control for 24 hr and then incubated with vary concentrations of compound 2 and assayed for viability. (E) Cyto c was titrated into SK-OV-3 cell lysate in the presence of 300 μM dATP, with or without 150 nM purified Apaf-1 and 20 μM compound 2 as indicated.
In order to verify that compound 2 targets the apoptosome as a function of its cytotoxic activity, small interfering RNA (siRNA) was used to silence the expression of Apaf-1 in Jurkat cells. Sense and anti-sense oligonucleotides corresponding to nucleotides 978-998 of Apaf-1 (([…]) as reported by Lassus et al. Science 297, 1352-4. (2002)), were purchased from Dharmacon. Transfection of siRNA into Jurkat cells was accomplished using GeneSilencer (Gene Therapy Systems) according to manufacturer's instructions. There was a significant decrease in the level of expression of Apaf-1 48 hr after transfection of an Apaf-1 specific siRNA, without affecting the expression of caspases in the pathway (FIG. 5A).

[5] = tested on: Apaf-1 transfected SK-OV-3 cells; test: Viability of SK-OV-3 cells transiently transfected with Apaf-1; format: cell-based; conditions: several independent experiments
Description: as §3
(§4) If silencing Apaf-1 in Jurkat cells make them resistant to compound 2 induced apoptosis, then it would be expected that ectopic expression of wildtype Apaf-1 in an Apaf-1 deficient cell line should render cells sensitive to compound 2. As mentioned above, the ovarian cancer cell line SK-OV-3 is deficient in Apaf-1 activity and is resistant to compound 2. Apaf-i was cloned into pcDNA-3 and transiently transfected into SK-OV-3 cells using Fugene (Roche) according to the manufacturer's instructions. Transient transfection of Apaf-1 into SK-OV-3 cells rendered them sensitive to compound 2 cytotoxicity as compared to the vector control (FIG. 5D). […]

procaspase-3 processing = test: Procaspase-3 processing in SK-OV-3 cell lysate with purified Apaf-1; format: biochemical; conditions: 20 μM compound, 150 nM purified Apaf-1, 300 μM dATP
Description: as §3, §4

procaspases-9 and -3 = test: Immunoblot for cleavage of procaspases-9 and -3 in S-100 cytoplasmic extracts; format: biochemical; conditions: 20 μM compound, cyto c 1.25 μM
Description: FIG. 2 depicts activity of compounds 1-5 in cell lysates. (A) Compound activation is cyto c dependent. Cyto c was titrated into S-100 cytoplasmic extracts with vehicle alone or 20 μM compound and procaspase-3 processing was assayed by capture ELISA. (B) Compound activation is dose-dependent. Compounds or vehicle were titrated into S-100 cytoplasmic extracts at a cyto c concentration of 1.25 μM and procaspases-3 processing was assayed by capture ELISA. (C) Immunoblot assay of compound-induced caspase activation. Samples at the 20 μM compound concentration in (B) were separated on SDS-polyacrylamide gel and transferred to polyvinyl membrane. The same membrane was cut and probed with antibodies to caspase-9, the large subunit of active caspase-3, and P13 kinase as a loading control. (D) Compounds act upstream of caspase-9 activation. Cyto c was titrated into caspase-3 immunodepleted extracts with or without 20 μM compounds and assayed by immunoblot for procaspase-9 processing.
To directly visualize the processing of procaspases induced by the compounds, samples at the 20 μM compound concentration in FIG. 2B were assayed by immunoblot for the cleavage of procaspases-9 and -3.

Work on `O=C1C(=O)N(Cc2ccc(Cl)c(Cl)c2)c2ccccc21` [Compound 2] yielded an EC50 (Jurkat cells; Jurkat, 22 hr, MTT test, read-out: EC50 cell killing) of ~5 µM, an IC50 (Jurkat cells; Jurkhat, leukemia, p53 +) of 4 µM and an IC50 [1] of 50 µM. The effect on cells (MCF 10A cells; MCF 10A cells, up to 50 μM) was “no effect except at the highest concentration”, the IC50 (MCF 10A cells; MCF 10A, normal cell) was > 50 µM and the IC50 [2] was 43 µM. For the same compound, the effect on cells ([3]; PREC cells, up to 50 μM) was “no effect except at the highest concentration”, the IC50 ([3]; PREC, normal cell) was > 50 µM and the IC50 (Molt-4) was 6 µM. For the same compound, the IC50 (CCRF-CEM) was 9 µM, the IC50 (BT-549) was 20 µM and the IC50 (MDA-MB-453) was > 50 µM. The IC50 (MCF-7; MCF-7, breast, caspase-3 deficient) was > 50 µM, the effect on cells (MCF-7; MCF-7, deficient in caspase-3 activity) was “no effect” and the IC50 (NCI-H23) was 35 µM. For the same compound, the IC50 (A431) was 40 µM, the “cell killing after silencing of Apaf-1” value [4] was “resistance” and the “viability of cells exposed to compound (plateau)” value [5] was 40-50%. For the same compound, the “effect on cyto c activation curve of procaspase-3 processing” value (procaspase-3 processing) was “shifted the activation curve to the left”.
With `O=C(NCc1ccc(Cl)c(Cl)c1)OC1CCc2ccccc21` (centres unmarked) [Compound 4] the “processing of procaspases-9 and -3” value (procaspases-9 and -3) was “limited processing”.
